These results are taken from EPA's ToxRefDB 2.

One may read the LOAEL as the lowest tested level that showed an adverse finding. One may read the NOAEL as the highest tested level that showed no adverse finding.

The test system of data set [1] is rat. To be noted: Subchronic oral toxicity in rodents, sprague dawley, Gavage/Intubation, dose end: 90 day, group: systemic.
The test system of data set [2] is rat. To be noted: Sub-acute repeat dose toxicity, sprague dawley, Oral, Gavage/Intubation, dose end: 10 day, group: systemic.
The subject of data set [3] is mouse. To be noted: Combined chronic toxicity/carcinogenicity, b6c3f1, Oral, Gavage/Intubation, dose end: 2 year, group: systemic.
For data set [4], the system named is rat. To be noted: Combined chronic toxicity/carcinogenicity, fischer, Oral, Gavage/Intubation, dose end: 2 year, group: systemic.
For data set [5], the system named is mouse. The conditions noted are these: Subchronic oral toxicity in rodents, b6c3f1, Gavage/Intubation, dose end: 13 week, group: systemic, systemic / pathology microscopic / kidney / vacuolization cytoplasmic + systemic / pathology microscopic / liver / vacuolization cytoplasmic….
Data set [6] deals with rat. To be noted: Subchronic oral toxicity in rodents, fischer, Gavage/Intubation, dose end: 13 week, group: systemic.
The subject of the next data set is dog. To be noted: Chronic toxicity, beagle, Oral, Feed, dose end: 104 week, group: systemic.
Data set [7] relates to rabbit. The conditions noted are these: Prenatal developmental toxicity study, other, Oral, Gavage/Intubation, dose end: 18 GD.
For data set [8], the system named is rat. The conditions noted are these: Prenatal developmental toxicity study, Crl: CD BR, Oral, Gavage/Intubation, dose end: 15 GD.
Data set [9] relates to rat. To be noted: Multigenerational reproductive toxicity study, other, Oral, Feed, dose end: 2 generation.
Data set [10] has as its system rat. To be noted: Chronic toxicity, wistar, Oral, Feed, dose end: 105 week, group: systemic.
Data set [11] has as its system mouse. To be noted: Carcinogenicity, cd1, Oral, Feed, dose end: 24 month, group: systemic.
For data set [12], the system named is rabbit. The conditions noted are these: Prenatal developmental toxicity study, new zealand white, Oral, Gavage/Intubation, dose end: 18 GD.
Data set [13] concerns rat. To be noted: Subchronic oral toxicity in rodents, wistar, Feed, dose end: 3 month, group: systemic, systemic / organ weight / liver / nos.
In data set [14] the test system is rat. To be noted: Sub-acute dermal toxicity, Sprague-Dawley, Topical, dose end: 29 day, group: systemic, systemic / in life observation / clinical signs / anogenital staining.
The test system of data set [15] is rat. The conditions noted are these: Subchronic dermal toxicity, other, Topical, dose end: 90 day, group: systemic, systemic / pathology gross / skin / lesion(s) (nos).
Data set [16] concerns rat. To be noted: Prenatal developmental toxicity study, sprague dawley, Oral, Gavage/Intubation, dose end: 19 GD.
In data set [17] the test system is rat. The conditions noted are these: Subchronic oral toxicity in rodents, sprague dawley, Feed, dose end: 13 week, group: systemic.
Data set [18] relates to rat. The conditions noted are these: Subchronic inhalation toxicity, sprague dawley, Nose-Only, dose end: 90 day, group: systemic, systemic / pathology microscopic / nose / degeneration + systemic / pathology microscopic / nose / hyperkeratosis + systemic / pathology ….
Where [19] appears, read: systemic / clinical chemistry / alkaline phosphatase (alp/alk) / alkaline phosphatase (alp/alk) + systemic / clinical chemistry / calcium / ….
[20] abbreviates: systemic / pathology microscopic / liver / inflammation + systemic / clinical chemistry / aspartate aminotransferase (ast/sgot) / aspartate ….
Setting [21] is: systemic / clinical chemistry / cholesterol / cholesterol + systemic / in life observation / body weight / body weight + systemic / organ ….
Where [22] appears, read: systemic / in life observation / body weight / body weight + systemic / pathology microscopic / kidney / vacuolization cytoplasmic + ….
The mark [23] stands for this setting: systemic / pathology microscopic / kidney / vacuolization cytoplasmic + systemic / pathology microscopic / liver / vacuolization cytoplasmic….
The mark [24] stands for this setting: systemic / in life observation / body weight / body weight + systemic / in life observation / body weight / body weight gain.
[25] abbreviates: systemic / in life observation / body weight / body weight + systemic / in life observation / mortality / mortality.
Setting [26] is: systemic / organ weight / kidney / relative to body weight + systemic / organ weight / pancreas / relative to body weight + systemic / organ….
Where [27] appears, read: group: developmental, developmental / developmental malformation / bone / [other].
Setting [28] is: group: maternal, systemic / in life observation / body weight / body weight gain.
Setting [29] is: group: maternal, systemic / in life observation / body weight / body weight gain + systemic / in life observation / food consumption / food consumption.
Where [30] appears, read: group: developmental, developmental / developmental malformation / bone / incomplete ossification.
The mark [31] stands for this setting: group: developmental, developmental / developmental malformation / bone / incomplete ossification + systemic / in life observation / body weight / fetal weight + ….
Where [32] appears, read: group: maternal, systemic / in life observation / body weight / body weight gain + systemic / in life observation / food consumption / food consumption + ….
[33] abbreviates: group: offspring, systemic / in life observation / body weight / offspring (pup) weight.
Where [34] appears, read: group: parental, systemic / in life observation / body weight / body weight gain + systemic / clinical chemistry / gamma glutamyl transferase (ggt) / gamma ….
Setting [35] is: group: parental, systemic / in life observation / body weight / body weight gain + systemic / in life observation / food consumption / food consumption + ….
The mark [36] stands for this setting: systemic / in life observation / body weight / body weight gain + systemic / organ weight / kidney / absolute + systemic / organ weight / ….
[37] abbreviates: systemic / organ weight / liver / relative to body weight.
[38] abbreviates: group: developmental, systemic / in life observation / body weight / fetal weight.
The mark [39] stands for this setting: group: maternal, reproductive / reproductive performance / reproductive performance other / runts.
The mark [40] stands for this setting: group: developmental, systemic / in life observation / body weight / fetal weight + developmental / developmental malformation / bone / bipartite ossification + ….
Setting [41] is: group: maternal, systemic / in life observation / clinical signs / salivation.
The mark [42] stands for this setting: group: maternal, systemic / in life observation / clinical signs / salivation + reproductive / reproductive performance / resorptions / resorptions + ….
Setting [43] is: systemic / pathology microscopic / spinal cord / vacuolization + systemic / pathology microscopic / brain / vacuolization.
Setting [44] is: systemic / pathology microscopic / spinal cord / vacuolization + systemic / pathology microscopic / brain / vacuolization + systemic / organ….

Take `Clc1cccc(Cl)c1` [1,3-Dichlorobenzene]: the LOAEL in the data set on rat [1] (setting [19]) was greater than 588 mg/kg/day; with rat [2] (setting [21]), greater than 735 mg/kg/day. The NOAEL with rat [1] (setting [19]) is no less than 588 mg/kg/day; in the data set with rat [2] (setting [21]), no less than 735 mg/kg/day. Also, the LEL in the data set with rat [1] (setting [20]) is 9 mg/kg/day; in the data set on rat [2] (systemic / organ weight / liver / nos + systemic / pathology microscopic / liver / necrosis), 147 mg/kg/day. Further, the results for the NEL with rat [1] (setting [20]) and with rat [2] (systemic / clinical chemistry / cholesterol / cholesterol + systemic / in life observation / body weight / body weight + systemic / in life …) were less than 9 mg/kg/day and 37 mg/kg/day, respectively.
Turning to `CC(=O)OC(C)c1ccccc1` (stereo not drawn) [Benzenemethanol, alpha-methyl-, acetate], the LOAEL in the data set on mouse [3] (setting [22]) is 1000 mg/kg/day; in the data set with rat [4] (systemic / in life observation / body weight / body weight + systemic / pathology microscopic / kidney / nephropathy), 2000 mg/kg/day; in the data set with mouse [5], 2000 mg/kg/day; in the data set on rat [6] (systemic / in life observation / body weight / body weight) it was 4000 mg/kg/day. For the same compound, the NOAEL amounted to 500 mg/kg/day in the data set on mouse [3] (setting [22]), 1000 mg/kg/day in the data set on rat [4] (systemic / in life observation / body weight / body weight + systemic / pathology microscopic / kidney / nephropathy + systemic / in life …), 1000 mg/kg/day with mouse [5] and 2000 mg/kg/day with rat [6] (setting [25]). The LEL was 500 mg/kg/day with mouse [3] (setting [23]), 1000 mg/kg/day in the data set on rat [4] (setting [24]), 2000 mg/kg/day in the data set on mouse [5] and 4000 mg/kg/day in the data set with rat [6] (systemic / in life observation / body weight / body weight + systemic / in life observation / mortality / mortality + systemic / pathology …). In addition, the NEL in the data set on mouse [3] (setting [23]) was less than 500 mg/kg/day; with rat [4] (setting [24]), less than 1000 mg/kg/day; in the data set on mouse [5], 1000 mg/kg/day; with rat [6] (setting [25]), 2000 mg/kg/day.
Take `CSc1nnc(C(C)(C)C)c(=O)n1N` [Metribuzin]: the LOAEL in the data set with dog (systemic / clinical chemistry / cholesterol / cholesterol + systemic / hematology / blood clotting / blood clotting - prothrombin time + …) is 37.5 mg/kg/day; in the data set with rabbit [7] (setting [27]), 85 mg/kg/day; in the data set with rabbit [7] (setting [28]), 30 mg/kg/day; in the data set on rat [8] (setting [31]), 200 mg/kg/day; in the data set on rat [8] (setting [32]) it was greater than 200 mg/kg/day; in the data set with rat [9] (setting [33]) it was 7.5 mg/kg/day. In addition, the LOAEL was found to be 7.5 mg/kg/day in the data set with rat [9] (setting [34]); 14.4 mg/kg/day with rat [10] (systemic / in life observation / body weight / body weight gain); 567 mg/kg/day in the data set on mouse [11] (systemic / hematology / hematocrit (hct) / hematocrit (hct) + systemic / hematology / hemoglobin (hgb) / hemoglobin (hgb)); 45 mg/kg/day with rabbit [12] (setting [38]); 135 mg/kg/day with rabbit [12] (group: maternal, reproductive / reproductive performance / aborted / aborted + systemic / in life observation / body weight / body weight); 3 mg/kg/day in the data set on rat [13]. The LEL with dog (setting [26]) was determined as 0.625 mg/kg/day; in the data set with rabbit [7] (setting [27]), 85 mg/kg/day; in the data set on rabbit [7] (setting [28]), 30 mg/kg/day; in the data set on rat [8] (setting [30]), 25 mg/kg/day; in the data set on rat [8] (setting [32]), 25 mg/kg/day; with rat [9] (setting [33]), 7.5 mg/kg/day. For the same compound, the LEL in the data set with rat [9] (setting [34]) is 7.5 mg/kg/day; in the data set with rat [10] (systemic / organ weight / lung / relative to body weight), 1.87 mg/kg/day; with mouse [11] (setting [37]) it was 35 mg/kg/day; in the data set on rabbit [12] (setting [38]) it was 45 mg/kg/day; with rabbit [12] (setting [39]), 45 mg/kg/day; in the data set on rat [13], 3 mg/kg/day. Further, the NEL is less than 0.625 mg/kg/day in the data set with dog (setting [26]); 30 mg/kg/day with rabbit [7] (setting [27]); 10 mg/kg/day in the data set with rabbit [7] (setting [29]); less than 25 mg/kg/day with rat [8] (setting [30]); less than 25 mg/kg/day in the data set with rat [8] (setting [32]); 1.5 mg/kg/day in the data set with rat [9] (setting [33]). Moreover, the NEL with rat [9] (setting [35]) is 1.5 mg/kg/day; with rat [10] (setting [36]), 1.3 mg/kg/day; in the data set on mouse [11] (setting [37]), less than 35 mg/kg/day; with rabbit [12] (setting [38]), 15 mg/kg/day; in the data set on rabbit [12] (setting [39]), 15 mg/kg/day; with rat [13] it was 1.25 mg/kg/day. In addition, the NOAEL was 2.5 mg/kg/day in the data set on dog (systemic / organ weight / kidney / relative to body weight + systemic / organ weight / pancreas / relative to body weight + systemic / …); 30 mg/kg/day in the data set on rabbit [7] (setting [27]); 10 mg/kg/day in the data set with rabbit [7] (setting [29]); 70 mg/kg/day with rat [8] (setting [31]); no less than 200 mg/kg/day with rat [8] (setting [32]); 1.5 mg/kg/day with rat [9] (setting [33]). The NOAEL in the data set on rat [9] (setting [35]) turned out to be 1.5 mg/kg/day; in the data set with rat [10] (setting [36]) it was 5.27 mg/kg/day; in the data set with mouse [11] (systemic / hematology / hematocrit (hct) / hematocrit (hct) + systemic / hematology / hemoglobin (hgb) / hemoglobin (hgb) + systemic / organ…), 139 mg/kg/day; in the data set on rabbit [12] (setting [38]), 15 mg/kg/day; in the data set on rabbit [12] (group: maternal, reproductive / reproductive performance / aborted / aborted + systemic / in life observation / body weight / body weight + reproductive / …), 45 mg/kg/day; in the data set on rat [13] it was 1.25 mg/kg/day.
Turning to `N#Cc1c(-c2ccc(Cl)cc2)[nH]c(C(F)(F)F)c1Br` [Tralopyril], the LEL was found to be 1000 mg/kg/day in the data set on rat [14]; 300 mg/kg/day in the data set on rat [15]; 10 mg/kg/day with rat [16] (setting [38]); 10 mg/kg/day in the data set with rat [16] (setting [41]); 6.3 mg/kg/day in the data set on rat [17] (setting [44]); 1.4 ppm in the data set on rat [18]. Also, the LOAEL was greater than 1000 mg/kg/day with rat [14]; 300 mg/kg/day in the data set on rat [15]; 10 mg/kg/day with rat [16] (setting [38]); 10 mg/kg/day in the data set with rat [16] (setting [41]); 6.3 mg/kg/day in the data set with rat [17] (setting [43]); 1.4 ppm with rat [18]. In addition, the NEL with rat [14] is 300 mg/kg/day; with rat [15], 100 mg/kg/day; with rat [16] (setting [40]), 5 mg/kg/day; in the data set with rat [16] (setting [42]), 5 mg/kg/day; with rat [17] (setting [44]), less than 6.3 mg/kg/day; in the data set on rat [18], less than 1.4 ppm. Also, the NOAEL is no less than 1000 mg/kg/day with rat [14]; 100 mg/kg/day in the data set with rat [15]; 5 mg/kg/day with rat [16] (setting [40]); 5 mg/kg/day in the data set on rat [16] (setting [42]); less than 6.3 mg/kg/day in the data set with rat [17] (setting [43]); less than 1.4 ppm with rat [18].
